Measured values as given in patent US4469701A, “Pyrrolid-3-en-2-ones and pharmaceutical methods of use thereof” (Stauffer Chemical Company, priority 1983, dated 1984).
Where two headings read alike, the source gives them in different places.

What was measured:
[1] = test system: mice; experiment: Central anticholinergic: oxotremorine tremors in mice; settings: Mus musculus, ip, 1 h, read-out: ED-100, central anticholinergic
[2] = test system: spontaneously hypertensive rats (SHR); experiment: Antihypertensive: blood pressure (tail cuff) in spontaneously hypertensive rats (SHR); type: in vivo, rat; settings: Rattus norvegicus, po, read-out: ED-100, antihypertensive
Protocol: Blood pressure was measured indirectly (tail cuff) in unanesthetized, unheated spontaneously hypertensive rats (SHR) before and 2, 4, and 6 hours after p.o. dosing. Reduction in mean pressure by more than 10% (>10) at any two consecutive measurement times after dosing indicates antihypertensive activity.

[3] = test system: mice; experiment: Antiarrhythmic: chloroform-induced cardiac arrhythmia in mice; type: in vivo, mouse; settings: Mus musculus, ip, read-out: ED-100, antiarrhythmic
Protocol: ^2 A = Antiarrythmic. Less than 2/3 mouse hearts fibrillating 15 min.

[4] = test system: rats; experiment: Bradycardia: heart rate by EKG in rats; type: in vivo, rat; settings: Rattus norvegicus, po, rats; reference compounds; read-out: ED-100, bradycardia
Protocol: […] Decrease in heart rate by more than 10% (>10) is considered a bradycardic effect.
Percent decrease in heart rate 45 min. after a 5
mg/kg oral dose in rats.

[5] = test system: rats; experiment: Antiulcer: stress induced gastric ulcers in rats; type: in vivo, rat; settings: rats, reference compounds
Protocol: Fasted rats were dosed, p.o., 30 minutes before immobilization in wire mesh and partial immersion in water for 4 hours. Inhibition of the resulting stress induced gastric ulcers by more than 60% (>60) indicates activity.
^6 U = Antiulcerative. Percent inhibition of stress ulcers 4 hr.
following a 50 mg/kg oral dose in rats.

## CN(C)CCCN1c2ccccc2CCc2ccccc21 [imipramine]
[1]
  ED100: 25 mg/kg

## CC(CCc1ccccc1)NCC(O)c1ccc(O)c(C(N)=O)c1 (stereo not shown) [labetalol, reference compound]
[2]; SHR, reference compounds
  ED100: 50 mg/kg

## CCN(CC)CC(=O)Nc1c(C)cccc1C [lidocaine, reference compound]
[3]
  ED100: 50 mg/kg

## C[C@](N)(Cc1ccc(O)c(O)c1)C(=O)O [methyldopa, reference compound]
[2]; SHR, reference compounds
  ED100: 50 mg/kg

## CCN(CC)CCNC(=O)c1cc(Cl)c(N)cc1OC [metoclopramide]
[1]
  ED100: > 100 mg/kg

## Cc1cccc(C)c1OCC(C)N (stereo not shown) [mexilitine, reference compound]
[3]; mice, reference compounds
  ED100: 50 mg/kg

## COC(=O)C1=C(C)NC(C)=C(C(=O)OC)C1c1ccccc1[N+](=O)[O-] [nifedipine, reference compound]
[3]; mice, reference compounds
  ED100: 25 mg/kg
[2]; SHR, reference compounds
  ED100: 50 mg/kg

## Cc1ccc(N(CC2=NCCN2)c2cccc(O)c2)cc1 [phentolamine, reference compound]
[2]; SHR, reference compounds
  ED100: 25 mg/kg

## CC(C)NCC(O)COc1cccc2[nH]ccc12 (stereo not shown) [pindolol, reference compound]
[3]
  ED100: 50 mg/kg

## COc1cc2nc(N3CCN(C(=O)c4ccco4)CC3)nc(N)c2cc1OC [prazosin, reference compound]
[2]; SHR, reference compounds
  ED100: 1 mg/kg

## CCN(CC)CCOC(=O)c1ccc(N)cc1 [procaine, reference compound]
[3]
  ED100: 100 mg/kg

## CC(C)NCC(O)COc1cccc2ccccc12 (stereo not shown) [propranolol, reference compound]
[3]
  ED100: 40 mg/kg
[4]
  ED100: 40 mg/kg

## NC(=S)Cc1ccccn1 [pyridyl-2-thioacetamide, reference compound]
[5]; p.o.
  ED-100, antiulcer: 50 mg/kg

## N=C(N)NN=Cc1c(Cl)cccc1Cl [quanabenz, reference compound]
[4]
  ED100: 2.5 mg/kg
[2]
  ED100: < 6 mg/kg

## C=CC1CN2CCC1CC2C(O)c1ccnc2ccc(OC)cc12 (stereo not shown) [qunidine, reference compound]
[3]
  ED100: 100 mg/kg

## COC(=O)[C@H]1[C@H]2C[C@@H]3c4[nH]c5cc(OC)ccc5c4CCN3C[C@H]2C[C@@H](OC(=O)c2cc(OC)c(OC)c(OC)c2)[C@@H]1OC [reserpine, reference compound]
[4]
  ED100: 5 mg/kg
[2]; SHR, reference compounds
  ED100: 25 mg/kg

## CCN1CCCC1CNC(=O)c1cc(S(N)(=O)=O)ccc1OC (stereo not shown) [sulpiride]
[1]
  ED100: > 100 mg/kg

## CCn1c2c(c3ccccc31)CCSC2(C)CCN(C)C (stereo not shown) [tandamine]
[1]
  ED100: > 50 mg/kg

## CSc1ccc2c(c1)N(CCC1CCCCN1C)c1ccccc1S2 (stereo not shown) [thioridazine]
[1]
  ED100: 10 mg/kg

## COc1ccc(CCN(C)CCCC(C#N)(c2ccc(OC)c(OC)c2)C(C)C)cc1OC (stereo not shown) [verapamil, reference compound]
[3]
  ED100: 50 mg/kg

## CS(=O)(=O)c1ccc(-c2cn3ccccc3n2)cc1 [zolimidine, reference compound]
[5]; Rattus norvegicus, po, read-out: ED-100, antiulcer
  ED100: > 100 mg/kg
